Laboratory results published in patent US5760032A, “Thienylazole compound and thienotriazolodiazepine compound” (Yoshitomi Pharmaceutical Industries, Ltd., priority 1994, dated 1998).
Like-named read-outs stand apart in the source and are kept apart here.

Legend:
[1] = biological target: T1, CCK-A receptor (Pancreas) (Rattus norvegicus, UniProt P30551); test: Binding to CCK receptor, pancreas membranes, inhibition of 125I-CCK-8 specific binding
T1 construct: Whole pancreas was removed from male Wister rats; from tissue; host or cells: rat pancreas membranes (male Wistar rats)
T1 sequence (P30551 1-444): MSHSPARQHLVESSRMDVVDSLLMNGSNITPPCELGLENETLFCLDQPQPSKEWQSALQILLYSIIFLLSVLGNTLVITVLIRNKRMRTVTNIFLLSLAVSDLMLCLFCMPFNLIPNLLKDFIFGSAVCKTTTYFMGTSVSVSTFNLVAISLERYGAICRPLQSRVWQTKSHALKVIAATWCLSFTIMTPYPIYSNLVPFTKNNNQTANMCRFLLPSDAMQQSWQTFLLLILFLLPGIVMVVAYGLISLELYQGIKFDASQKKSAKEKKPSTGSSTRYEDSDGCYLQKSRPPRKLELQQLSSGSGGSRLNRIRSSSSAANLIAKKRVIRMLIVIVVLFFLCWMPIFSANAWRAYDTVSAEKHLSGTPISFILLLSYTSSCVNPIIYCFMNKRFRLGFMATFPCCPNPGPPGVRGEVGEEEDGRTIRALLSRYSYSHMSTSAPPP
Protocol: (§1) Whole pancreas was removed from male Wister rats. Fat tissue was removed and the pancreas was homogenized (Blinkman Polytron PT20) in 10 mM MES buffer (0.02% Bacitracin, 0.02% soy bean-derived trypsin inhibitor, 0.0001% phenylmethanesulfonyl fluoride, pH 6.5). The homogenate was passed through a nylon cloth (120 mesh) and the filtrate was centrifuged at 40,000×g for 15 minutes. The obtained sediment was homogenized in Tris buffer and centrifuged in the same manner as above. The sediment was suspended in a buffer for binding assay (50 mM MES containing 130 mM sodium chloride, 4.7 mM potassium chloride, 5 mM magnesium chloride, 0.02% Bacitracin, 0.0001% phenylmethanesulfonyl fluoride, pH 6.5) and used as a peripheral receptor source. In the case of central tissue, rat cerebral cortex was used for the preparation by suspending same in a buffer (pH 6.5) containing 5 mM magnesium chloride, 1 mM EGTA [ethylene glycol bis(2-aminoethylether)tetraacetic acid], 360 mM sodium chloride, 15 mM potassium chloride, 20 mM HEPES (N-2-hydroxyethylpiperazine-N'-2-ethanesulfonic acid) and 0.25 mg/ml Bacitracin. For binding assay, 50 μl buffer (for total binding use) and unlabelled CCK-8 sulfate (for non-specific binding) having a final concentration of 1 μM or a test compound (^125 I-CCK-8, 63-67 TBq/mmol, 40,000-50,000 cpm, 50 μl) were added to a membrane suspension (450 μl, containing 100 μg as protein). The reaction mixture was incubated at 20° C. for 30 minutes and filtered through a glass fiber filter (Whatman G/FB) by suction. Immediately thereafter, the filter was washed three times with ice-cold Tris buffer (2.5 ml) and the radioactivity on the filter was determined.
(§2) The effects of the test compound on the CCK receptor binding were evaluated by the concentration (IC50, nM) necessary for inhibiting the specific binding by 50%, which was obtained by calculating the inhibition ratio by the following formula: [formula]
(§3) The results of the effects of the test compounds on the CCK receptor binding are shown in the following

CCK-B receptor (Brain) = biological target: T2, CCK-B receptor (Brain) (Rattus norvegicus, UniProt P30553); test: Binding to CCK receptor, cerebral cortex membranes, inhibition of 125I-CCK-8 specific binding; conditions: pH 6.5, 20° C., 30 minutes
T2 construct: from tissue; host or cells: rat cerebral cortex membranes
T2 sequence (P30553 1-452): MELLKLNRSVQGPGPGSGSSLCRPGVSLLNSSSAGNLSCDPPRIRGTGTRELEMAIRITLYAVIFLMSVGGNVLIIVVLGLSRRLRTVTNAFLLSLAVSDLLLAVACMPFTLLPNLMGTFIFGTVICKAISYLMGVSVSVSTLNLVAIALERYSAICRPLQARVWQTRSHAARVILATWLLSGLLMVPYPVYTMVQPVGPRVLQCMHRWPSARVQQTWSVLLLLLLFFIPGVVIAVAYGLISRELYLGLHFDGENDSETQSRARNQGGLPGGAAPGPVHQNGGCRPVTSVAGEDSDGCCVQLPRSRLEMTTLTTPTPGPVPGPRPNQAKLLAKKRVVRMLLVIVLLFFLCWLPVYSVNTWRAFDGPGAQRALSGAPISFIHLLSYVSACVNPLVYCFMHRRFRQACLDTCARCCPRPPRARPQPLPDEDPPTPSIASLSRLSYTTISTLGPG
Protocol: as §1, §2, §3

[2] = tested on: CCK-8-induced secretion of pancreatic juice (trypsin secretion); test: Effects on CCK-induced secretion of pancreatic juice in guinea pig under anesthesia; type: in vivo; conditions: 300 μg/kg intravenous, 5 minutes before second CCK-8 (0.1 μg/kg i.v.); male guinea pigs under urethane anesthesia
Protocol: Effects on CCK-induced secretion of pancreatic juice in guinea pig under anesthesia
Male guinea pigs weighing about 650 g were anesthetized by subcutaneous administration of urethane (1.6 g/kg), and a cannula for injection of perfusing solution was inserted into the pyloric part of stomach and a discharge cannula was inserted at a position 2 cm distal from Treitz ligament. Duodenum was perfused with physiological saline at a rate of 8 ml/15 min, and trypsin secretion in the perfusate was determined. For the determination, Na-benzoyl-arginine p-nitroanilide (BAPNA) was used as a synthetic substrate and spectrophotometer was used for the determination. Secretion of pancreatic juice was induced by an intravenous administration of CCK-8 (0.1 μg/kg), and 60 minutes later, CCK-8 was administered again. The inhibition ratio of the test compound which was intravenously administered at 5 minutes before the second administration of CCK-8 was calculated by the following formula: [formula]
The effects of the test compounds on inhibition of secretion of pancreatic juice induced by CCK receptor in guinea pig under anesthesia are shown in the following

[3] = rat pancreas membranes, 125I-CCK-8, pH 6.5, 20° C., 30 minutes, read-out: Pancreas (CCK-A) IC50

Compound	IC50 [1, 3]	IC50 (CCK-B receptor (Brain))	Inhibition of CCK-8-induced secretion of pancreatic juice [2]	IC50 [1]
CCc1cc(C(=O)c2ccccc2Cl)c(-n2c(C)nnc2CNC(=O)c2cc3ccccc3n2CC(=O)O)s1 [Example 19, 2-(4-(3-(2-chlorobenzoyl)-5-ethylthiophen-2-yl)-5-methyl[1,2,4]triazol-3-ylmethylcarbamoyl)indole-1-acetic acid]	10.6 nM	> 1000 nM	81.9 ± 5.9%	
CCc1cc(C(=O)c2ccccc2Cl)c(-n2c(C)nnc2CNC(=O)Nc2cccc(C)c2)s1 [Example 26, N-(4-(3-(2-chlorobenzoyl)-5-ethylthiophen-2-yl)-5-methyl[1,2,4]triazol-3-ylmethyl)-N'-(3-methylphenyl)urea]	5.6 nM	> 1000 nM		
CCc1cc2c(s1)-n1c(nnc1CNC(=O)c1ccc(Cl)c(Cl)c1)CN=C2c1ccccc1Cl [Example 59, N-(4-(2-chlorophenyl)-2-ethyl-6H-thieno[3,2-f] [1,2,4]triazolo[4,3-a] [1,4]diazepin-9-ylmethyl)-3,4-dichlorobenzamide]		> 1000 nM		13 nM
CCc1cc(C(=O)c2ccccc2Cl)c(-n2c(Br)nnc2CNC(=O)c2cc3ccccc3[nH]2)s1 [Example 72, N-(3-bromo-4-(3-(2-chlorobenzoyl)-5-ethylthiophen-2-yl) [1,2,4]triazol-5-ylmethyl)indole-2-carboxamide]	3.2 nM	> 1000 nM		
Cc1nnc(CNC(=O)c2cc3ccccc3[nH]2)n1-c1sc(C(=O)O)cc1C(=O)c1ccccc1Cl [Example 252, (3-(2-chlorobenzoyl)-2-(3-(2-indolecarbonylaminomethyl)-5-methyl[1,2,4]triazol-4-yl)thiophen-5-yl)carboxylic acid]	6.6 nM	> 1000 nM	82.6 ± 2.6%	
CCc1cc2c(s1)-n1c(nnc1[C@@H](CCC(=O)O)NC(=O)c1ccc(Cl)c(Cl)c1)CN=C2c1ccccc1Cl [Example 277, (R)-(-)-4-(3,4-dichlorobenzoylamino)-4-(4-(2-chlorophenyl)-2-ethyl-6H-thieno[3,2-f] [1,2,4]triazolo[4,3-a] [1,4]diazepin-9-yl)butanoic acid]		> 1000 nM	85.1 ± 12.1%	9.6 nM
CCc1cc2c(s1)-n1c(nnc1[C@@H](CCC(=O)O)NC(=O)c1cc3ccccc3[nH]1)CN=C2c1ccccc1Cl [Example 280, (R)-(-)-4-(4-(2-chlorophenyl)-2-ethyl-6H-thieno[3,2-f] [1,2,4]triazolo[4,3-a] [1,4]diazepin-9-yl)-4-(1H-indole-2-carboxamide)butanoic acid]		> 1000 nM	78.1 ± 7.6%	2.7 nM

Further compounds by falling IC50 [1, 3], results first:

IC50 [1, 3]	IC50 (CCK-B receptor (Brain))	Compound	Inhibition of CCK-8-induced secretion of pancreatic juice [2]	IC50 [1]
7.6 nM	> 1000 nM	CCc1cc(C(=O)c2ccccc2Cl)c(-n2c(C)nnc2CNC(=O)c2ccc(Cl)cc2N)s1 [Example 338, 2-amino-4-chloro-N-(4-(3-(2-chlorobenzoyl)-5-ethylthiophen-2-yl)-5-methyl[1,2,4]triazol-3-ylmethyl)benzamide]		
7.5 nM	> 1000 nM	CCc1cc(C(=O)c2ccccc2Cl)c(-n2c(C)nnc2CNC(=O)c2ccc(Cl)c(Cl)c2)s1 [Example 11, N-(4-(3-(2-chlorobenzoyl)-5-ethylthiophen-2-yl)-5-methyl[1,2,4]triazol-3-ylmethyl)-3,4-dichlorobenzamide]		
4.8 nM	> 1000 nM	CCc1cc(C(=O)c2ccccc2Cl)c(-n2c(C)nnc2CNC(=O)Nc2cccc(OC)c2)s1 [Example 27, N-(4-(3-(2-chlorobenzoyl)-5-ethylthiophen-2-yl)-5-methyl[1,2,4]triazol-3-ylmethyl)-N'-(3-methoxyphenyl)urea]		
3.7 nM	> 1000 nM	CCc1cc(C(=O)c2ccccc2Cl)c(-n2c(C)nnc2CNC(=O)c2cc3ccccc3[nH]2)s1 [Example 14, N-(4-(3-(2-chlorobenzoyl)-5-ethylthiophen-2-yl)-5-methyl[1,2,4]triazol-3-ylmethyl)indole-2-carboxamide]		
